Results published in patent publication US6670395B1, “Prophylactic and therapeutic treatment of skin sensitization and irritation” (Bristol-Myers Squibb Company, priority 1996, dated 2003).

How the values were obtained:
Balb/c female mice [1] = assay: Irritation induced by phorbol myristate: mouse ear thickness; conditions: in vivo
Description: (§1) Thirty (30) Balb/c female mice were obtained from Sprague Dawley Labs. A 1.0% (w/v) solution of PAME was prepared in a gel formulation (2.5% HPMC in 75% ethanol). A second solution containing a 2:1 volume ratio of acetone to ethanol was also prepared. A 20% (w/v) solution of captopril and the second solution (sufficient to elicit a strong irritant response), was also prepared. In addition a 1.0% HPMC solution was prepared as a placebo.
(§2) The Group I mice (10 mice) received the second solution and then 10 minutes later the HPMC solution. The positive control mice (10) designated as Group II received the captopril solution to the right ear followed by the HPMC solution. The experimental group of mice (10) (Group III) received the captopril solution to the right ear followed ten minutes later by the PAME solution.
(§3) The thickness of the ears was measured after 2 hours when maximum redness and swelling from the captopril solution were observed.
The procedures of Example 4 were repeated except that captopril was replaced with phorbol myristate (12-tetradecanyol-13-phorbol myristic acid) in an amount of 0.1% (w/v) in a 1% HPMC gel. Phenoxyacetic acid was also tested in this protocol.

Balb/c mice [2] = assay: Counter sensitizer to DNCB: ear swelling after DNCB challenge of sensitized mice; format: in vivo
Description: (§4) A 1.0% (w/v) solution of phenoxyacetic acid methyl ester (PAME, a compound of Formula I wherein R is methyl) was prepared in a gel formulation (2.5% HPMC in 75% ethanol). The same gel formulation served as a negative control. For sensitization, a 1% (w/v) solution of dinitrochlorobenzene (DNCB) was prepared in acetone.
(§5) Twenty-four (24) Balb/c mice had their back skin shaved. The mice were divided into three equal groups. The first group acted as a negative control and received on day 0 an application of acetone. The second and third groups each received 20 μL of 1% DNCB in acetone on the exposed back skin.
[…] Then, 10 minutes after challenge, the first and second groups received 100 μL of 1% HPMC in 75% ethanol. The third group received 1% of PAME in the HPMC gel.
(§6) Adverse reaction to the challenge with DNCB was determined by measuring the thickness of the mice ears before and after challenge to determine the amount of swelling, and then comparing the degree of swelling for mice treated in accordance with the invention (Group III) with Groups I and Groups II.

Balb/c mice [3] = assay: Counter sensitizer to oxazolone: ear swelling after challenge of sensitized mice; format: in vivo
Description: as §4, §5
All three groups were challenged on the right ear with 20μL of 1% DNCB in acetone five (5) days after sensitization. Then, 10 minutes after challenge, the first and second groups received 100 μL of 1% HPMC in 75% ethanol. The third group received 1% of PAME in the HPMC gel.
as §6
The procedures of Example 1 were repeated except that the mice were sensitized with a 1% (w/v) solution of oxazolone.

Balb/c female mice [4] = assay: Irritation induced by captopril: mouse ear thickness; format: in vivo
Description: as §1, §2, §3

Balb/c female mice [5] = assay: Irritation induced by retinoic acid: mouse ear thickness; format: in vivo
Description: as §1, §2, §3
The procedures of […] were repeated except that captopril was replaced by retinoic acid in an amount of 1% (w/v) in a 1% HPMC gel.

Balb/c female mice [6] = assay: Irritation induced by dinitrochlorobenzene: mouse ear thickness; format: in vivo
Description: as §1, §2, §3
The procedures of Example 4 were repeated except that captopril was replaced with dinitrochlorobenzene (DNCB) in an amount of 2.0% (w/v) in a 1% HPMC gel.

[7] = PAME (2 mg) in HPMC gel + oxazolone (100 μg), 24 hours

Row | Compound | inflammation induced by contact with phorbol myristate (in words) (Balb/c female mice [1]) | EAR SWELLING (Balb/c mice [2]; PAME (1 mg) in HPMC gel + DNCB (100 μg), 24 hours) [MM × 10^−3] | EAR THICKNESS (Balb/c mice [2]; PAME (1 mg) in HPMC gel + DNCB (100 μg), 24 hours, right ear) [MM × 10^−3] | % SUPPRESSION (Balb/c mice [2]; PAME (1 mg) in HPMC gel + DNCB (100 μg), 24 hours, vs DNCB only) [%] | adverse reaction of the skin induced by sensitization with DNCB (in words) (Balb/c mice [2]; administered alone, prophylactically) | EAR SWELLING (Balb/c mice [3]; [7]) [MM × 10^−3] | EAR THICKNESS (Balb/c mice [3]; [7]) [MM × 10^−3] | % SUPPRESSION (Balb/c mice [3]; PAME (2 mg) in HPMC gel + oxazolone (100 μg), 24 hours, vs oxazolone only) [%] | adverse reactions induced by sensitization with oxazolone (in words) (Balb/c mice [3]; mouse, in vivo) | EAR THICKNESS (Balb/c female mice [4]; 1.0% PAME gel 10 minutes after 20% captopril solution, 2 hours) [MM × 10^−3] | % SUPPRESSION (Balb/c female mice [4]; PAME + captopril, 2 hours, vs captopril only) | inflammation induced by contact with captopril (in words) (Balb/c female mice [4]; mouse, in vivo) | EAR THICKNESS (Balb/c female mice [5]; PAME + retinoic acid 1% (w/v), 2 hours) [MM × 10^−3] | % SUPPRESSION (Balb/c female mice [5]; PAME + retinoic acid, 2 hours, vs retinoic acid only) [%] | inflammation induced by retinoic acid (in words) (Balb/c female mice [5]; mouse, in vivo) | EAR THICKNESS (Balb/c female mice [6]; PAME + DNCB 2.0% (w/v), 2 hours) [MM × 10^−3] | % SUPPRESSION (Balb/c female mice [6]; PAME + DNCB, 2 hours, vs DNCB only) [%] | inflammation induced by contact with DNCB (in words) (Balb/c female mice [6]; mouse, in vivo)
1 | O=C(O)COc1ccccc1 [PHENOXYACETIC ACID, Phenoxyacetic acid] | suppressed inflammation |  |  |  |  |  |  |  |  |  |  |  |  |  |  |  |  | 
2 | COC(=O)COc1ccccc1 [PAME, phenoxyacetic acid methyl ester] | suppressed inflammation | 12 | 240 ± 6 | 62 | prevented an adverse reaction of the skin | 16 | 278 ± 15 | 84 | suppressed adverse reactions | 226 ± 5 | ≈93% | suppressed inflammation | 237 ± 11 | 100 | suppressed inflammation | 249 ± 8 | 100 | suppressed inflammation
